Laboratory results from patent publication US20240376129A1, “METALLODRUG THERAPEUTIC COMPOUNDS AND PRODRUGS OF METALLODRUG THERAPEUTIC COMPOUNDS” (Dublin City University, priority 2021, published 2024).

Experiments:
[1] = system: supercoiled pUC19 DNA; test: DNA condensation of supercoiled pUC19 by gel electrophoresis; type: biochemical; conditions: for DNA condensation activity: supercoiled pUC19, at 100 μM; for DNA condensation / aggregation effect: supercoiled pUC19, tested at 100 and 500 μM, 37° C., 90 min
Method: Preparation of solutions. Tri-Click samples were initially prepared in DMF and further diluted in HEPES buffer (80 mM). Metal complexes of the Tri-Click series were prepared in-situ by co-incubating with copper(II) nitrate trihydrate, manganese (II) chloride tetrahydrate or zinc(II) acetate dihydrate for 30 min at 37° C. prior to DNA addition.
DNA nuclease and condensation studies. Reactions were carried out in 80 mM HEPES (pH 7.4) unless otherwise stated and followed the general procedure: a total volume of 20 μL with 25 mM NaCl, 400 ng pUC19 at varying concentrations of test compounds (0.25-500 μM) were incubated at 37° C. for either 90 min, 6 h, 12 h or 24 h. Reactions were quenched by adding 6× loading buffer (Fermentas) containing 10 mM Tris-HCl, 0.03% bromophenol blue, 0.03% xylene cyanole FF, 60% glycerol, 60 mM EDTA and samples were loaded onto an agarose gel (1.2%) containing 4 μL EtBr. Electrophoresis was completed at 70 V for 1 h in 1×TAE buffer. DNA studies conducted in the presence of reductant were supplemented with 1 mM Na-L-ascorbate and incubated at 37° C. for 30 min. Electrophoresis was carried out at 70 V for 90 minutes in 1×TAE buffer and photographed using a UV transilluminator.
The DNA recognition properties of the TC series, along with the control compounds, were probed using electrophoresis experiments with supercoiled pUC19 DNA. TC1 was examined across a wide concentration range and found to condense DNA at high concentrations between 250 and 500 μM (FIG. 2a, lanes 11-13).

[2] = system: poly[d(G-C)2]; test: Competitive ethidium bromide displacement assay, poly[d(G-C)2]; type: binding; conditions: EtBr displacement
Method: (§1) Competitive ethidium bromide displacement assay. The DNA binding affinity of the tripodal series was determined over a 2 h time period using calf-thymus DNA and synthetic alternating co-polymers poly[d(A-T)2)] and poly[d(G-C)2] by ethidium bromide fluorescence quenching in a similar manner to the high throughput method previously reported by Kellett et al. (McCann, M., McGinley, J., Ni, K., O'Connor, M., Kavanagh, K., McKee, V., Colleran, J., Devereux, M., Gathergood, N., Barron, N. et al. (2013) A new phenanthroline-oxazine ligand: synthesis, coordination chemistry and atypical DNA binding interaction. Chem. Commun., 49, 2341-2343). Each drug concentration was measured in triplicate, on at least two separate occasions, and the apparent binding constants were calculated using Kapp=Ke×12.6/C50 where Ke=9.5×10^6 M^−1.

[3] = system: calf-thymus DNA (ctDNA); test: Competitive ethidium bromide displacement assay, calf-thymus DNA; type: binding
Method: as §1

[4] = system: poly[d(A-T)2]; test: Competitive ethidium bromide displacement assay, poly[d(A-T)2]; type: binding; conditions: A-T duplex polymer, EtBr displacement
Method: as §1

| Molecule | DNA condensation activity [1] | DNA condensation / aggregation effect [1] | also measured |
| --- | --- | --- | --- |
| 2,4,6-Tris-(1,2-ethanediamine)-mesitylene [T2] | highly active | – | – |
| 2,4,6-Tris-(1,3-propanediamine)-mesitylene [T3] | highly active | – | – |
| Cc1c(CN)c(C)c(CN)c(C)c1CN [T1, 2,4,6-Tris-(aminomethyl)-mesitylene] | – | mildly condense pUC19 | – |
| Cc1c(Cn2cc(CN)nn2)c(C)c(Cn2cc(CN)nn2)c(C)c1Cn1cc(CN)nn1 [TC1, Tri-Click propargylamine] | – | – | apparent DNA binding constant (Kapp) [2]: ~10^5 M^−1; apparent DNA binding constant (Kapp) ([3]; ctDNA, EtBr displacement): ~10^6 M^−1; binding affinity to duplex DNA (summary) ([3]; duplex DNA, conclusion summary over ctDNA and co-polymers): 10^5-10^6 M^−1; apparent DNA binding constant (Kapp) [4]: ~10^6 M^−1 |
| Cc1c(Cn2cc(-c3cccc(N(C)C)c3)nn2)c(C)c(Cn2cc(-c3cccc(N(C)C)c3)nn2)c(C)c1Cn1cc(-c2cccc(N(C)C)c2)nn1 [TC6, Tri-Click 3-ethynyl-N,N-dimethylaniline] | – | slight aggregation effects | – |
| Cc1c(Cn2cc(-c3ccc(N(C)C)cc3)nn2)c(C)c(Cn2cc(-c3ccc(N(C)C)cc3)nn2)c(C)c1Cn1cc(-c2ccc(N(C)C)cc2)nn1 [TC7, Tri-Click 4-ethynyl-N,N-dimethylaniline] | – | slight aggregation effects | – |
